Experimental data as given in US7150974B1, “Parathyroid hormone receptor binding method” (The General Hospital Corporation, priority 1991, dated 2006).

Legend:
[1] = target: T1, rat bone PTH/PTHrP receptor (Rattus norvegicus, UniProt P25961, E586G); assay: Intracellular free calcium, COS-7 cells expressing R15B; format: cell-based; details: COS-7 cells expressing rat receptor
T1 construct: expressed in transfected cells; host or cells: COS / COS-7 cells, transient, plasmid R15B (pcDNA I)
T1 sequence (P25961 27-591 E586G): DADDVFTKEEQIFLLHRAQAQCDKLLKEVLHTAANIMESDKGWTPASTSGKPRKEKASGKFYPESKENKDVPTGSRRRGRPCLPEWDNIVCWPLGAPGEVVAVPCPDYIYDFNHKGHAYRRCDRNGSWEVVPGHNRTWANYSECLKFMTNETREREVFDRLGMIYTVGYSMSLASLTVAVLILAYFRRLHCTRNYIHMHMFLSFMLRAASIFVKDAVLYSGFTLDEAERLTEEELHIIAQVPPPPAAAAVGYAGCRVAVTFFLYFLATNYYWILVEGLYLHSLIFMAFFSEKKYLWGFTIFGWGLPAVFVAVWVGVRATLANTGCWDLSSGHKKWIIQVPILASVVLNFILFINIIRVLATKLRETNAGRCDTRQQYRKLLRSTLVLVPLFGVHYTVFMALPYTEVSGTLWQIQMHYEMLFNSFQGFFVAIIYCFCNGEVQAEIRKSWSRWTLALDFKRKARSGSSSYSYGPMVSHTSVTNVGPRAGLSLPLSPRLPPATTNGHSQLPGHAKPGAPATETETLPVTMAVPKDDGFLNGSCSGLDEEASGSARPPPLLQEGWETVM
Description: Details of the methodology are:
Coverslips plated with COS cells were incubated in Fura-2 AM loading buffer containing, in mM: HEPES (N-[2-Hydroxyethyl]piperazine-N′-[2-ethanesulfonic acid]), 20; CaCl2, 1; KCl 5; NaCl, 145; MgSO4, 0.5; NaHCO3, 25; K2HPO4, 1.4; glucose, 10; and Fura-2 AM 91-(2-5′-carboxyoxazol-2′-yl)-6-aminobenzofuran-5oxy-(2′-amino-5′-methylphenoxy)ethane-N,N,N′,N′-tetraaecetic acid acetomethoxy ester), 0.5; at 37° C. at pH7.4, aerated with 95% air and 5% CO2 for 45 minutes. Cells loaded with Fura-2 AM were then washed with a modified Krebs-Heinseleit (KH) buffer containing, in mM: HEPES, 20; CaCl2, 1; KCl, 5; NaCl, 145; MgSO4, 0.5; Na2HPO4, 1; glucose, 5; pH7.4. To check that cleavage of the ester occurred, the excitation spectra after different times of Fura-2 AM incubation were measured.
To measure fluorescence of individual cells, the cover slips were placed in a microscope tissue chamber (Biophysica Technologies, Inc., MD). The chamber consisted of a shallow, sloped compartment made of Teflon with a silicone rubber seal. The cover slips served as the bottom of the chamber. A heater/cooler ring was encased in the silicone rubber which sealed the coverslip in place.

[2] = target: T1, rat bone PTH/PTHrP receptor; assay: cAMP accumulation, COS cells expressing R15B; format: cell-based
Description: Intracellular cAMP accumulation was measured as described previously (Abou-Samra et al., J. Biol. Chem. 262:1129, 1986). Cells in 24-well plates were rinsed with culture medium containing 0.1% BSA and 2 mM IBMX. […] The supernatant was removed and the cells immediately frozen by placing the whole plate in dry ice powder. Intracellular cAMP was extracted by thawing the cells in 1 ml of 50 mM HCl and analyzed by a specific radioimmunoassay using an anti-cAMP antibody (e.g., Sigma, St. Louis, Mo.). A cAMP analog (2′-O-monosuccinyl-adenosine 3′:5′-cyclic monophosphate tyrosyl methyl ester, obtained from Sigma) which was used a tracer for cAMP was iodinated by the chloramine T method. Free iodine was removed by adsorbing the iodinated cAMP analog onto a C18 Sep-pak cartridge (Waters, Milford, Mass.). After washing with dH2O, the iodinated cAMP analog was eluted from the Sep-pak Cartridge with 40% acetonitrille (ACN) and 0.1% trifluoroacetic acid (TFA). The iodinated cAMP analog was lyophilized, reconstituted in 1 ml 0.1% TFA, and injected into a C18 reverse phase HPLC column (Waters). The column was equilibrated with 10% ACN in 0.1% TFA, and eluted with gradient of 10-30% ACN in 0.1% TFA. This allows separation of the mono-iodinated cAMP analog from the non-iodinated cAMP analog. […] The standard used for the assay, adenosine 3′:5′-cyclic monophosphate, was purchased from Sigma. […]

[Nle^8,18, Tyr^34]bPTH(1-34)amide
increase in intracellular free calcium, PTH(1-34) compared with PTHrP(1-36) [1]: to the same extent
cAMP accumulation ([2]; COS cells expressing R15B, FIG. 16): increase cAMP accumulation
cAMP accumulation, PTH(1-34) compared with PTHrP(1-36) ([2]; COS-7 cells expressing rat receptor): to the same extent
